± gives the uncertainty stated by the source.
Assay: xn = mol fraction of the nth substance listed
Conditions: 101 kPa

OCCCCO + CS(C)=O
viscosity [mPa·s]
Conditions	293.15 K	298.15 K	303.15 K	308.15 K	313.15 K	318.15 K
x1 = 0.0436	2.61 ± 0.05	2.25 ± 0.05	2.06 ± 0.04	1.81 ± 0.04	1.67 ± 0.04	1.55 ± 0.03
x1 = 0.0879	3 ± 0.06	2.59 ± 0.05	2.35 ± 0.05	2.06 ± 0.04	1.89 ± 0.04	1.74 ± 0.04
x1 = 0.1327	3.46 ± 0.07	2.97 ± 0.06	2.68 ± 0.06	2.34 ± 0.05	2.13 ± 0.04	1.96 ± 0.04
x1 = 0.1781	4.01 ± 0.08	3.4 ± 0.07	3.06 ± 0.06	2.66 ± 0.06	2.41 ± 0.05	2.21 ± 0.05
x1 = 0.2242	4.66 ± 0.1	3.92 ± 0.08	3.51 ± 0.07	3.05 ± 0.06	2.73 ± 0.06	2.53 ± 0.05
x1 = 0.2709	5.43 ± 0.11	4.53 ± 0.09	4.05 ± 0.08	3.49 ± 0.07	3.13 ± 0.07	–
x1 = 0.3183	6.36 ± 0.13	5.27 ± 0.11	4.7 ± 0.1	4 ± 0.08	3.55 ± 0.07	–
x1 = 0.3663	7.51 ± 0.16	6.19 ± 0.13	5.47 ± 0.11	4.63 ± 0.1	4.08 ± 0.08	–
x1 = 0.415	8.85 ± 0.18	7.3 ± 0.15	6.4 ± 0.13	5.38 ± 0.11	4.7 ± 0.1	–
x1 = 0.4644	10.5 ± 0.2	8.6 ± 0.18	7.5 ± 0.15	6.3 ± 0.13	5.47 ± 0.11	–
x1 = 0.5145	12.7 ± 0.3	10.3 ± 0.2	8.9 ± 0.18	7.4 ± 0.15	6.4 ± 0.13	–
x1 = 0.5653	15.4 ± 0.3	12.4 ± 0.3	10.6 ± 0.2	8.8 ± 0.18	7.5 ± 0.15	–
x1 = 0.6169	18.9 ± 0.4	15 ± 0.3	12.8 ± 0.3	10.5 ± 0.2	8.9 ± 0.18	–
x1 = 0.6692	23.4 ± 0.5	18.5 ± 0.4	15.6 ± 0.3	12.7 ± 0.3	10.7 ± 0.2	–
x1 = 0.7223	29.2 ± 0.6	22.9 ± 0.5	19.1 ± 0.4	15.4 ± 0.3	12.9 ± 0.3	–
x1 = 0.7762	36.7 ± 0.8	28.4 ± 0.6	23.5 ± 0.5	18.9 ± 0.4	15.6 ± 0.3	–
x1 = 0.8309	46.5 ± 1	35.7 ± 0.7	29.3 ± 0.6	23.2 ± 0.5	19 ± 0.4	–
x1 = 0.8864	59.2 ± 1.2	44.8 ± 0.9	36.4 ± 0.7	28.6 ± 0.6	23.3 ± 0.5	–
x1 = 0.9428	75.2 ± 1.6	56.4 ± 1.1	45.4 ± 0.9	35.5 ± 0.7	28.7 ± 0.6	–

— the CheMixHub viscosity set
